According to PubChem BioAssay (NCI):
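These data come from cells grown in 96-well plates and exposed to compound for 48 hours at five concentrations. The concentration for full growth arrest is given as TGI.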 Where a SMILES comes first, the peptide text is derived from it. [ ]: non-standard residue; d: D form. The star is where a group is joined. ξ: configuration not given here. X37 = O=C(OCc1ccccc1)[C@@H]1CCC[C@H]1N*; Fmoc = O=C(OCC1c2ccccc2-c2ccccc21)*; ξW = NC(Cc1c[nH]c2ccccc12)C(=O)O; ξF = NC(Cc1ccccc1)C(=O)O; Boc = CC(C)(C)OC(=O)*; ξK = NCCCCC(N)C(=O)O; ξT = CC(O)C(N)C(=O)O; tBu = CC(C)(C)*

Columns and labels:
Assay in all cases: growth of human tumour cells (NCI), 48 h
[1] = system: ACHN renal
[2] = system: K-562 leukemia
[3] = system: MDA-MB-231 breast
[4] = system: MDA-MB-435
[5] = system: MDA-N
[6] = system: NCI-H226 lung
[7] = system: RPMI-8226 leukemia
[8] = system: SK-MEL-28 melanoma
[9] = system: SN12C renal
[10] = system: UO-31 renal

Nc1nc(Cl)cc(NCC2(CO)CC(CCCCc3ccccc3)C2)n1 (stereo unspecified)
TGI [1]: > 100 µM
TGI [2]: > 100 µM
TGI [3]: > 100 µM
TGI [4]: > 100 µM
TGI [5]: > 100 µM
TGI [6]: > 100 µM
TGI [7]: 86.2 µM
TGI [8]: > 100 µM
TGI [9]: > 100 µM

COc1ccc2c(c1)CCC(CN1CCN(CCOC(c3ccc(F)cc3)c3ccc(F)cc3)CC1)=C2
TGI [1]: > 100 µM
TGI [2]: > 100 µM
TGI [3]: 31.8 µM
TGI [4]: 68.9 µM
TGI [5]: 47.2 µM
TGI [6]: 30.6 µM
TGI [7]: 36.9 µM
TGI [8]: 77.1 µM
TGI [9]: 26.3 µM

C[N+](C)(C)CCCCCc1c2nc(c(CCCCC[N+](C)(C)C)c3ccc([nH]3)c(CCCCC[N+](C)(C)C)c3ccc([nH]3)c(CCCCC[N+](C)(C)C)c3nc1C=C3)C=C2
TGI [1]: > 100 µM
TGI [2]: > 100 µM
TGI [3]: > 100 µM
TGI [4]: > 100 µM
TGI [5]: > 100 µM
TGI [6]: > 100 µM
TGI [7]: > 100 µM
TGI [8]: > 100 µM
TGI [9]: > 100 µM
TGI [10]: > 100 µM

CC(C)(C)[Si](C)(C)OCC1OC(n2ccc(=O)[nH]c2=O)C(O[Si](C)(C)C(C)(C)C)/C1=N/O (stereo unspecified)
TGI [1]: 12.1 µM
TGI [2]: 15.7 µM
TGI [3]: 54.6 µM
TGI [4]: 9.95 µM
TGI [5]: > 36.2 µM
TGI [6]: 9.24 µM
TGI [7]: 7.75 µM
TGI [8]: 9.69 µM
TGI [9]: 16.3 µM
TGI [10]: 14.5 µM

NC12c3c4cccc3Oc3cccc(c31)Oc1cccc(c12)O4
TGI [1]: > 50 µM
TGI [2]: > 50 µM
TGI [3]: > 50 µM
TGI [4]: > 50 µM
TGI [5]: > 50 µM
TGI [6]: > 50 µM
TGI [7]: > 50 µM
TGI [8]: > 50 µM
TGI [9]: > 50 µM
TGI [10]: > 50 µM

Cc1[nH]n(C(=O)c2ccccc2O)c(=O)c1/C=C1\C(=O)C=Cc2ccccc21
TGI [1]: 12.8 µM
TGI [2]: > 44 µM
TGI [3]: 26.8 µM
TGI [4]: 79.7 µM
TGI [5]: > 100 µM
TGI [6]: 8.57 µM
TGI [7]: 31.1 µM
TGI [8]: 71.6 µM
TGI [9]: 13.6 µM
TGI [10]: 13.2 µM

CC1(C)OC1CC/C(=C/CBr)CBr (stereo unspecified)
TGI [1]: 30.9 µM
TGI [2]: 49 µM
TGI [3]: 30.1 µM
TGI [4]: 31.9 µM
TGI [5]: 29.3 µM
TGI [6]: 48.4 µM
TGI [7]: 40.7 µM
TGI [8]: 31.5 µM
TGI [9]: 29.1 µM
TGI [10]: 28.9 µM

NC(=O)c1cc2ccccc2c(N=Nc2ccccc2)c1O
TGI [2]: > 100 µM
TGI [3]: > 100 µM
TGI [4]: > 100 µM
TGI [5]: > 100 µM
TGI [6]: > 100 µM
TGI [7]: > 100 µM
TGI [8]: > 100 µM
TGI [9]: > 100 µM
TGI [10]: > 100 µM

Cc1ccc(S(=O)/C=C(\NC(=O)OCc2ccccc2)C(F)(F)F)cc1 (stereo unspecified)
TGI [1]: 71 µM
TGI [2]: > 100 µM
TGI [3]: > 100 µM
TGI [4]: > 100 µM
TGI [5]: > 100 µM
TGI [6]: > 100 µM
TGI [8]: 72 µM
TGI [9]: > 100 µM
TGI [10]: 73.4 µM

CC(OC(C)(C)C)C(NC(=O)C(CCCCNC(=O)OC(C)(C)C)NC(=O)C(Cc1c[nH]c2ccccc12)NC(=O)C(Cc1ccccc1)NC(=O)OCC1c2ccccc2-c2ccccc21)C(=O)NC(Cc1ccccc1)C(=O)N[C@@H]1CCC[C@H]1C(=O)OCc1ccccc1 (stereo partly specified) (Fmoc-[ξF][ξW][ξK](Boc)[ξT](tBu)[ξF]-X37)
TGI [1]: > 100 µM
TGI [2]: > 100 µM
TGI [3]: > 100 µM
TGI [4]: > 100 µM
TGI [5]: > 100 µM
TGI [6]: > 100 µM
TGI [7]: > 100 µM
TGI [8]: > 100 µM
TGI [9]: > 100 µM
TGI [10]: > 100 µM
